Measurements from US6545039B1 (Viatris GmbH & Co. KG, priority 1999, dated 2003).

Experiment: Tolerability of intravenous infusion rates in healthy subjects
Format: in vivo, human
Settings: i.v., all infusion rates used (100, 200, 600 mg/min)
Description: The following results were obtained here. 1.

Compound: O=C(O)CCCCC1CCSS1 (stereo not drawn) [α-lipoic acid]
- tolerability of infusion rate: excellently tolerated
